Molecules are shown by their SMILES.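 Results reflect a 48-hour exposure of cells in 96-well plates to compound at five concentrations. GI50: concentration for 50% inhibition of growth.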 Activity calls are given as the source filed them. Cut-off read from the data, not from the text of the source: active = GI50 up to about 1.1 µM and inactive = higher.

Common to all, as to assay: growth of human tumour cells (NCI), 48 h
Experiment [1] relates to UACC-257.
Experiment [2] has as its system SNB-75.
Experiment [3] has as its system HOP-92.
For experiment [4], the system named is SNB-19.
Experiment [5] has as its system SR.
Experiment [6] has as its system UACC-62.
Experiment [7] deals with SF-539.
The test system of experiment [8] is M14.
For experiment [9], the system named is T47D.
Experiment [10] concerns MOLT-4.
Experiment [11] relates to U-251.
The test system of experiment [12] is A549.
Experiment [13] has as its system HCT-15.
In experiment [14] the test system is CAKI-1.
Experiment [15] has as its system HL-60.
For experiment [16], the system named is Hs-578T.
In experiment [17] the test system is NCI/ADR-RES.
Experiment [18] concerns LOX IMVI.
The subject of experiment [19] is OVCAR-8.
For experiment [20], the system named is MDA-MB-435.

On to `CC(C)(C)C1=CC(=C(c2ccc(-c3c4nc(c(-c5ccc(C(=C6C=C(C(C)(C)C)C(=O)C(C(C)(C)C)=C6)c6cc(C(C)(C)C)c(O)c(C(C)(C)C)c6)cc5)c5ccc([nH]5)c(-c5ccc(C(=C6C=C(C(C)(C)C)C(=O)C(C(C)(C)C)=C6)c6cc(C(C)(C)C)c(O)c(C(C)(C)C)c6)cc5)c5nc(c(-c6ccc(C(=C7C=C(C(C)(C)C)C(=O)C(C(C)(C)C)=C7)c7cc(C(C)(C)C)c(O)c(C(C)(C)C)c7)cc6)c6ccc3[nH]6)C=C5)C=C4)cc2)c2cc(C(C)(C)C)c(O)c(C(C)(C)C)c2)C=C(C(C)(C)C)C1=O`, for which the GI50 in [1], in experiment [2], in experiment [3], in [4], in experiment [5] and in [6] was > 100 µM (inactive) in each case. Moreover, the GI50 in experiment [7], in [8], in [9], in [10], in experiment [11] and in [12] was > 100 µM (inactive) in each case. For the same compound, the GI50 in [13] was > 100 µM; in [14], > 100 µM (inactive); in [15], > 100 µM (inactive); in [16] it was > 100 µM (inactive); in experiment [17], > 100 µM (inactive); in experiment [18] it was > 100 µM (inactive). Moreover, the GI50 in experiment [19] and in experiment [20] was > 100 µM (inactive) in each case.

Take `CC1(C)CNC(=O)C2(CCCO2)CNC(C)(C)CNC(=O)C2(CCCO2)CN1` (stereo not given): the GI50 in experiment [1], in experiment [2], in experiment [3], in experiment [4], in experiment [5] and in experiment [6] was > 10 µM (inactive) each time. In addition, the GI50 in experiment [7], in experiment [8], in experiment [9], in experiment [10], in experiment [11] and in [12] was > 10 µM (inactive) throughout. Moreover, the GI50 in experiment [13] was > 10 µM; in [14] it was > 10 µM (inactive); in [15], > 10 µM (inactive); in [16], > 10 µM (inactive); in experiment [17], > 10 µM (inactive); in experiment [18], > 10 µM (inactive). Besides, the GI50 in [19] and in experiment [20] was > 10 µM (inactive) in each case.

Values taken from ChEMBL document CHEMBL1201862, “PubChem BioAssay data set” (2004).
